Measured values: PubChem BioAssay (NCI)
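These data come from cells grown in 96-well plates and exposed to compound for 48 hours at five concentrations. GI50: concentration for 50% inhibition of growth. At the TGI there is no net growth.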

Assays:
Experiment in all cases: growth of human tumour cells (NCI), 48 h
[1] = system: COLO 205 colon
[2] = system: M14 melanoma
[3] = system: UO-31 renal
[4] = system: UACC-257 melanoma
[5] = system: SNB-19 CNS
[6] = system: MALME-3M melanoma
[7] = system: HOP-62 NSCLC
[8] = system: NCI/ADR-RES ovarian
[9] = system: HCT-116 colon
[10] = system: IGROV1 ovarian

Structure (SMILES)	GI50 [1] [µM]	TGI [1] [µM]	GI50 [2] [µM]	TGI [2] [µM]	GI50 [3] [µM]	TGI [3] [µM]	GI50 [4] [µM]	TGI [4] [µM]	GI50 [5] [µM]	TGI [5] [µM]	GI50 [6] [µM]	TGI [6] [µM]	GI50 [7] [µM]	TGI [7] [µM]	GI50 [8] [µM]	TGI [8] [µM]	GI50 [9] [µM]	TGI [9] [µM]	GI50 [10] [µM]	TGI [10] [µM]
COc1ccc2c3c(Nc4cccc(/C(C)=N\O)c4)[nH]c4ccccc4c-3c(N=O)c2c1	21.3	57.1	29.9	> 100	52.9	> 100	41	> 100	43.7	> 100	34.7	95.5	37.9	> 100	21.2	96.9	14.6	34.2	26.1	84.5
COc1cc(C2c3cc4c(cc3[C@@H](Nc3cccc(CO)c3)C3COC(=O)[C@H]23)OCO4)cc(OC)c1O (stereo partly drawn)	–	3.72	–	–	–	10.4	–	5.04	–	15.7	–	11.4	–	0.556	–	59.2	–	11.6	–	17
CC(CC(N)C(=O)O)C(=O)O (stereo not drawn)	–	–	–	> 100	–	> 100	–	> 100	–	> 100	–	> 100	–	> 100	–	> 100	–	> 100	–	> 100
COc1cc(OC)cc(-c2ccc(-c3ccc(C(=N)N)cn3)o2)c1	1.62	3.27	–	–	1.59	3.06	1.76	3.3	–	–	1.82	3.49	–	–	6.53	38.5	–	–	1.81	3.38
OCC1COc2cc(Cl)c(Cl)cc2O1 (stereo not drawn)	–	> 10	–	> 10	–	> 10	–	–	–	> 10	–	> 10	–	> 10	–	> 10	–	> 10	–	> 10
CSCC[C@@H]1C(=O)N(C)[C@H](C(C)(C)C)N1C(=O)c1ccccc1	–	> 100	–	–	–	> 100	–	> 100	–	> 100	–	> 100	–	> 100	–	> 100	–	> 100	–	> 100
COc1nc2cccc(C(O)c3ccccc3)c2nc1-c1ccccc1 (stereo not drawn)	–	16.3	–	21.2	–	68.7	–	26.9	–	51.1	–	> 100	–	19.1	–	15.9	–	16.2	–	44.6
CC1(C)[C@@H]2CC[C@]1(C)[C@H](OC(=O)/C=C/c1ccccc1)C2	–	31	–	70.8	–	34	–	63.3	–	36.3	–	38.5	–	63.1	–	37.1	–	38.1	–	51.8
COc1cc(C(=O)O[C@H](C(=O)NCCCNC(=O)[C@@H](OC(=O)c2cc(OC)cc3c(C)cccc23)[C@]2(C)CO2)[C@]2(C)CO2)c2cccc(C)c2c1	0.0593	0.511	< 0.0486	–	0.705	> 100	0.27	0.872	–	0.701	–	–	–	–	0.154	0.97	–	–	–	–
